Measured values: US4604381A, “4-demethoxy-13-dihydrodaunorubicin and use thereof” (Farmitalia Carlo Erba S.p.A., priority 1984, dated 1986)
≈ marks a conversion by molar mass, not a printed value. Where two headings read alike, the source gives them in different places.

Tests used:
HeLa cells = experiment: Colony inhibition test on HeLa cells (cytotoxicity); assay type: cell-based; details: Homo sapiens; for IC50: read-out: DI50 (dose causing 50% inhibition)
Experimental: Cytotoxicity. Colony inhibition test on HeLa cells.
The test was carried on HeLa according to the method described in J. Med. Chem., 1975, 18, 703. Exponentially growing cells (2 days after inoculation) were treated with several concentrations of daunorubicin, 4-demethoxydaunorubicin, and 4-demethoxy-13-dihydrodaunorubicin.
After 24 hours of exposure to the drugs, the cells were washed, trypsinized and plated (200 cells/plate). On day 6 the colonies containing more than 50 cells were counted. The dose causing 50% inhibition was calculated on the basis of dose-reponsive curves.
Colony inhibition on HeLa cells^a
^b % respect with control

leukemia P 388 = experiment: Activity against ascitic leukemia P 388 in CDF-1 mice; assay type: in vivo; details: i.p. on day 1
Experimental: Activity against ascitic leukemia P 388
The experiments were performed on CDF-1 mice inoculated i.p. with 10^6 leukemic cells/mouse.

Gross leukemia = experiment: Activity against Gross leukemia in C3H mice; assay type: in vivo; details: i.v. on day 1
Experimental: (§1) Activity against Gross leukemia
The experiments were performed on C3H mice inoculated i.v. with 2×10^6 leukemic cells/mouse.
as §1

[1] = test system: advanced mammary Carcinoma; experiment: Activity against advanced mammary carcinoma in C3H female mice; assay type: in vivo; details: once a week × 4 from palpable tumor; for growth % on day 48: controls 3476
Experimental: Activity against advanced mammary Carcinoma^a
The experiments were performed on C3H female mice inoculated
with 2 × 10^6 tumor cells/mouse
^a treatment once a week × 4, starting when the tumor was […]

[2] = HeLa, 24 h, read-out: % Colonies (% respect with control)

`CC(O)[C@]1(O)Cc2c(O)c3c(c(O)c2[C@@H](O[C@H]2C[C@H](N)[C@H](O)[C@H](C)O2)C1)C(=O)c1ccccc1C3=O` (stereo partly shown) [4-demethoxy-13-dihydrodaunorubicin] was tested, and the activity at 0.00156 µg/mL (HeLa cells; [2]) was 100%, the activity at 0.0031 µg/mL (HeLa cells; [2]) was 45% and the activity at 0.0062 µg/mL (HeLa cells; [2]) was 9%. The activity at 0.0125 µg/mL (HeLa cells; [2]) was 0%, the IC50 (HeLa cells; HeLa, 24 h) was 3 ng/mL (≈ 0.00601 µM) and the T/C % (leukemia P 388; 0.14 mg/kg) was 130%. The toxic deaths (leukemia P 388; 0.14 mg/kg) was 0/10, the T/C % (leukemia P 388; 0.22 mg/kg) was 160% and the toxic deaths (leukemia P 388; 0.22 mg/kg) was 0/10. The T/C % (leukemia P 388; 0.33 mg/kg) was 170%, the toxic deaths (leukemia P 388; 0.33 mg/kg) was 0/10 and the T/C % (leukemia P 388; 0.5 mg/kg) was 170%. For the same compound, the toxic deaths (leukemia P 388; 0.5 mg/kg) was 3/10, the T/C % (Gross leukemia; 0.84 mg/kg) was 200% and the toxic deaths (Gross leukemia; 0.84 mg/kg) was 0/10. The T/C % (Gross leukemia; 1.26 mg/kg) was 250%, the toxic deaths (Gross leukemia; 1.26 mg/kg) was 0/10 and the T/C % (Gross leukemia; 1.9 mg/kg) was 258%. For the same compound, the toxic deaths (Gross leukemia; 1.9 mg/kg) was 0/10, the “inhibition % on day 48” value ([1]; 0.6 mg/kg) was 0% and the “growth % on day 48” value ([1]; 0.6 mg/kg) was 5124%. The “inhibition % on day 48” value ([1]; 0.8 mg/kg) was 3%, the “growth % on day 48” value ([1]; 0.8 mg/kg) was 3374% and the “inhibition % on day 48” value ([1]; 1.2 mg/kg) was 65%. The “growth % on day 48” value ([1]; 1.2 mg/kg) was 1201%.

`CC(=O)[C@]1(O)Cc2c(O)c3c(c(O)c2[C@@H](O[C@H]2C[C@H](N)[C@H](O)[C@H](C)O2)C1)C(=O)c1ccccc1C3=O` [4-demethoxydaunorubicin] gave an activity at 0.0015 µg/mL (HeLa cells; HeLa, 1.5 ng/ml, 24 hours exposure, read-out: % Colonies (% respect with control)) of 126%, an activity at 0.0031 µg/mL (HeLa cells; HeLa, 3.1 ng/ml, 24 hours exposure, read-out: % Colonies (% respect with control)) of 73% and an activity at 0.0062 µg/mL (HeLa cells; HeLa, 6.2 ng/ml, 24 hours exposure, read-out: % Colonies (% respect with control)) of 37%. For the same compound, the activity at 0.0125 µg/mL (HeLa cells; HeLa, 12.5 ng/ml, 24 hours exposure, read-out: % Colonies (% respect with control)) was 10%, the activity at 0.025 µg/mL (HeLa cells; HeLa, 25 ng/ml, 24 hours exposure, read-out: % Colonies (% respect with control)) was 0% and the IC50 (HeLa cells; HeLa colony inhibition, 24 hours exposure) was 5.5 ng/mL (≈ 0.0111 µM). The T/C % (leukemia P 388; 0.33 mg/kg) was 150%, the toxic deaths (leukemia P 388; 0.33 mg/kg) was 0/10 and the T/C % (leukemia P 388; 0.5 mg/kg) was 170%. For the same compound, the toxic deaths (leukemia P 388; 0.5 mg/kg) was 0/10, the T/C % (leukemia P 388; 0.75 mg/kg) was 155% and the toxic deaths (leukemia P 388; 0.75 mg/kg) was 3/10. For the same compound, the T/C % (Gross leukemia; 1.9 mg/kg) was 233%, the toxic deaths (Gross leukemia; 1.9 mg/kg) was 0/10 and the T/C % (Gross leukemia; 2.5 mg/kg) was 233%. The toxic deaths (Gross leukemia; 2.5 mg/kg) was 0/10, the T/C % (Gross leukemia; 3.3 mg/kg) was 266% and the toxic deaths (Gross leukemia; 3.3 mg/kg) was 0/10. The “inhibition % on day 48” value ([1]; 0.8 mg/kg) was 0%, the “growth % on day 48” value ([1]; 0.8 mg/kg) was 4322% and the “inhibition % on day 48” value ([1]; 1.2 mg/kg) was 42%. For the same compound, the “growth % on day 48” value ([1]; 1.2 mg/kg) was 2029%.

Work on `COc1cccc2c1C(=O)c1c(O)c3c(c(O)c1C2=O)C[C@@](O)(C(C)=O)C[C@@H]3O[C@H]1C[C@H](N)[C@H](O)[C@H](C)O1` [daunorubicin] yielded an activity at 0.0062 µg/mL (HeLa cells; [2]) of 92%, an activity at 0.0125 µg/mL (HeLa cells; [2]) of 32% and an activity at 0.025 µg/mL (HeLa cells; [2]) of 3%. The IC50 (HeLa cells; HeLa, 24 h) was 11 ng/mL (≈ 0.0209 µM), the T/C % (leukemia P 388; 4.4 mg/kg) was 180% and the toxic deaths (leukemia P 388; 4.4 mg/kg) was 0/10. For the same compound, the T/C % (leukemia P 388; 6.6 mg/kg) was 168%, the toxic deaths (leukemia P 388; 6.6 mg/kg) was 2/10 and the T/C % (Gross leukemia; 10 mg/kg) was 150%. For the same compound, the toxic deaths (Gross leukemia; 10 mg/kg) was 0/10, the T/C % (Gross leukemia; 15 mg/kg) was 183% and the toxic deaths (Gross leukemia; 15 mg/kg) was 0/10. The T/C % (Gross leukemia; 22.5 mg/kg) was 233% and the toxic deaths (Gross leukemia; 22.5 mg/kg) was 0/10.
